Consider 16 compounds from US20260125346A1, “Isoquinolinone Derivatives and 4H-Quinolizinone Derivatives and Pharmaceutical Compositions Thereof for the Treatment of Disease” (BeOne Medicines I GmbH, priority 2023, published 2026).

Assay [1] addresses PI3Kα (p110/p85) kinase (wild type, "WT") (Homo sapiens, UniProt P42336). As to the kind of experiment: PI3Kα (p110/p85) kinase ADP-Glo Assay. The class given is biochemical. The settings on record: 25 uM ATP. Summed up:
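IC50 values come from a four-parameter logistic fit of ADP-Glo chemiluminescence, reflecting ADP formed. Enzyme, lipid substrate and […] compound were preincubated 30 min at room temperature, then 25 µM ATP was added for a 120 min reaction in 50 mM HEPES pH7.5, 3 mM MgCl2.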

The test system of assay [2] is WT cell line SK-BR-3. Description: Phospho-AKT (Ser473) Inhibition Assay (HTRF), SK-BR-3. The settings on record: Homo sapiens; SK-BR-3, 1 hour treatment; read-out: p-AKT Inhibition assay (S473) IC50 SK-BR-3. The class given is cell-based. Summed up:
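SK-BR-3 (PI3Kα WT) cells seeded overnight in MEM with insulin, then treated 1 h with 11-point 1:3 dilutions (10 μM to 0.1 nM, 0.1% DMSO). Lysates read for phospho-AKT Ser473 by HTRF after 4 h antibody incubation at room temperature. IC50 from 4-parameter fit, % inhibition normalized to DMSO (max) and 10 μM GDC0077 (min).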

Assay [3] deals with PI3Kα H1047R mutated cell line T-47D cells. Description: Cell Proliferation Assay (CellTiter-Glo), T-47D. The class given is cell-based. The settings on record: for IC50: Homo sapiens, T47D, 72 h, T-47D, 3 days treatment; for Selectivity: SK-BR-3/T-47D (cell proliferation): cell proliferation IC50 ratio. Here is the method:
Cell Culture Maintenance. The T-47D (ATCC, HTB-133) cell line was obtained from the American Type Culture Collection. Cells were maintained in RPMI1640 medium (Gibco, REF #22400105) supplemented with 10% Fetal Bovine Serum (Gibco, REF #10091148). Cultures were maintained in a humidified incubator at 37° C. under 5% CO2/95% air.
(§1) Cell Proliferation Assay. PI3Kα H1047R mutated cell line T-47D cells and WT cell line SK-BR-3 were seeded at a density of 3×10^3 cells per well in 96 well plate (Xinyou Biotechnology, 062096) in 95 μL of culture medium, overnight. Compounds dissolved in 10 mM stock solutions in DMSO were serially diluted 1:3 in DMSO to generate a 9-point dilution series and plated using an INTEGRA ASSIST Plus pipetting robot. A 20× intermediate compound dilution plate in RPMI1640 medium (200 M starting compound concentration in 2% DMSO) was then prepared. Five μL of intermediate serially diluted compounds were added to the cell plate to final concentrations ranging from […] to 1 nM in 0.1% DMSO. 0.1% DMSO alone was used to establish the maximum signal and medium without cells was for minimum signal. After 3 days treatment, equilibrated the plate and its contents at room temperature for approximately 30 minutes. Added 30 μL CellTiter-Glo® Reagent (Promega, REF #G7571) to each well. Then mixed contents for 5 min on plate shaker to induce cell lysis. Incubated at room temperature for 10 minutes to stabilize luminescent signal. The plates were read on PHERAstar FSX Microplate reader using standard luminescence settings.
(§2) Relative IC50 values were determined using luminescence units by calculating percent inhibition with respect to the in-plate “MIN” (medium only) and “MAX” (0.1% DMSO) controls. The data were analyzed using a 4-parameter nonlinear logistic equation (four-parameter logistic concentration-response curve): Y=bottom+[(top−bottom)/1+(X/IC50) slope] • where Y=% inhibition, X=concentration of inhibitor, bottom=minimum value of y attained by curve-fit, top=maximum value of y attained by curve-fit and slope=steepness of curve at the IC50.

In assay [4] the test system is WT cell line SK-BR-3. Description: Cell Proliferation Assay (CellTiter-Glo), SK-BR-3. The class given is cell-based. The settings on record: Homo sapiens, 72 h; SK-BR-3, 3 days treatment. Here is the method:
The SK-BR-3 (ATCC, HTB-30) cell line was obtained from the American Type Culture Collection. Cells were maintained in McCoy' 5A medium (Gibco, REF #16600108) supplemented with 10% Fetal Bovine Serum. Cultures were maintained in a humidified incubator at 37° C. under 5% CO2/95% air.
as §1, §2

Molecules are shown by their SMILES.

PI3Kα (p110/p85) kinase (wild type, "WT"), sequence (P42336 whole entry): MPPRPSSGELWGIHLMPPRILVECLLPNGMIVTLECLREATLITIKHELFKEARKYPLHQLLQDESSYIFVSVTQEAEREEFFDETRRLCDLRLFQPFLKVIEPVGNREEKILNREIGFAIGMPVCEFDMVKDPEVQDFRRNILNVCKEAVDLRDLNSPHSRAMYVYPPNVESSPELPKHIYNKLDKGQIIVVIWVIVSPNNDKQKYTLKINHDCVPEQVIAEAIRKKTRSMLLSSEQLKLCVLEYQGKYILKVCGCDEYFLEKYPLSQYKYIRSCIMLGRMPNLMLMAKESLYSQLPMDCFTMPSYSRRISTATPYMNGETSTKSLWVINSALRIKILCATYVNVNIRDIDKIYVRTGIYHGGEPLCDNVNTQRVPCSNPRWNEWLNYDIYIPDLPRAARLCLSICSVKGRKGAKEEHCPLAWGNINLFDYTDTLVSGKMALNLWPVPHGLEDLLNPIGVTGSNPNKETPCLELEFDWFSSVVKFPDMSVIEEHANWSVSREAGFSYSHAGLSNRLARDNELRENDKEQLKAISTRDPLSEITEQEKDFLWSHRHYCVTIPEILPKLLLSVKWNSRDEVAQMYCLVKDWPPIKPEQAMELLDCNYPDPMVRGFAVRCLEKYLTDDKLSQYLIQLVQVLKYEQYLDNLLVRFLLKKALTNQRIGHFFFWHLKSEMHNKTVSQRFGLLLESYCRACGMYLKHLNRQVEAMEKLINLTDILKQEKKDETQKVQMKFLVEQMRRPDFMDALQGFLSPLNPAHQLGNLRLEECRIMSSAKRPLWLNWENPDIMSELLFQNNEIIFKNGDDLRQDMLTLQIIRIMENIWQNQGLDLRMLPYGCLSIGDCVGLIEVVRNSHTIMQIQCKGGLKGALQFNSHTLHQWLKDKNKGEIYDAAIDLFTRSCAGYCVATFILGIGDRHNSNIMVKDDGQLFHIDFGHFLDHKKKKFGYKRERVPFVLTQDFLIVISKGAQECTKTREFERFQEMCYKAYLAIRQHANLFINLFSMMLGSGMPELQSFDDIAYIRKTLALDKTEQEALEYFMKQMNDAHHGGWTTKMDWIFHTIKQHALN
PI3Kα (p110/p85) kinase (wild type, "WT"), sequence (P27986 whole entry partner): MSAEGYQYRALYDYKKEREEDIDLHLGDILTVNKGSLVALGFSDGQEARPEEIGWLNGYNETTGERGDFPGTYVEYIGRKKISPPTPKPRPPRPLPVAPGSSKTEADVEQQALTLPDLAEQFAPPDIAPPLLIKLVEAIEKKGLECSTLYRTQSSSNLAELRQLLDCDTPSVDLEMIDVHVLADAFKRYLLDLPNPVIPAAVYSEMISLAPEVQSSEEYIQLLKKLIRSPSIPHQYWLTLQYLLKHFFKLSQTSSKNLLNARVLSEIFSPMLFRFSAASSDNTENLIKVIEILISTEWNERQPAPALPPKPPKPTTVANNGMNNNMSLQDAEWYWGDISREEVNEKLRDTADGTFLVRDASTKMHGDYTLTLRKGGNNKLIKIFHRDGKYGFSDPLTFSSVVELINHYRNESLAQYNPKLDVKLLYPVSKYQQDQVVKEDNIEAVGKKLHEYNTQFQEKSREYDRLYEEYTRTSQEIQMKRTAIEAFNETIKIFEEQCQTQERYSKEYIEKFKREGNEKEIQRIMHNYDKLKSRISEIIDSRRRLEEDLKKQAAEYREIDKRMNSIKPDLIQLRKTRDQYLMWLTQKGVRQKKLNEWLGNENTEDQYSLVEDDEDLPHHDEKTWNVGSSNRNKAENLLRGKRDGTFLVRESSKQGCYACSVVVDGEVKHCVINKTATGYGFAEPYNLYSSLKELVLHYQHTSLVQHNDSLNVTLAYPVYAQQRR

Turning to `COc1cccc(-c2cc3c(C(C)Nc4ccccc4C(=O)O)cc(C)cc3c(=O)n2C)c1` (centres unmarked) [Example 13, 2-((1-(3-(3-methoxyphenyl)-2,7-dimethyl-1-oxo-1,2-dihydroisoquinolin-5-yl)ethyl)amino)benzoic acid], the IC50 is 5.82 µM in assay [1], 3.59 µM in the assay on WT cell line SK-BR-3 [2], 233 nM in assay [3] and above 10 µM with WT cell line SK-BR-3 [4]. In addition, in assay [3], the “Selectivity: SK-BR-3/T-47D (cell proliferation)” value (from here on “Selectivity: SK-BR-3/T-47D”) was above 43.

As for `COc1ccc(-c2cc3c(C(C)Nc4ccccc4C(=O)O)cc(C)cc3c(=O)n2C)cc1` (centres unmarked) [Example 14, 2-((1-(3-(4-methoxyphenyl)-2,7-dimethyl-1-oxo-1,2-dihydroisoquinolin-5-yl)ethyl)amino)benzoic acid], the IC50 in assay [1] was 3.72 µM; in the assay on WT cell line SK-BR-3 [2], 2.06 µM; in assay [3], 232 nM; with WT cell line SK-BR-3 [4] it was above 10 µM. In addition, in assay [3], the “Selectivity: SK-BR-3/T-47D” value is on record as above 43.

`COc1ccc(-c2cc3c(C(C)Nc4ccccc4C(=O)O)cc(C)cc3c(=O)n2C)cn1` (centres unmarked) [Example 15, 2-((1-(3-(6-methoxypyridin-3-yl)-2,7-dimethyl-1-oxo-1,2-dihydroisoquinolin-5-yl)ethyl)amino)benzoic acid]: the IC50 in assay [1] was 6.86 µM; in the assay with WT cell line SK-BR-3 [2], 8.36 µM; in assay [3] it was 112 nM; in the assay with WT cell line SK-BR-3 [4], above 10 µM. The “Selectivity: SK-BR-3/T-47D” value in assay [3] is above 89.

Consider `Cc1cc(C(C)Nc2ccccc2C(=O)O)c2cc(-c3cnn(-c4ccc(C(N)=O)cn4)c3)n(C)c(=O)c2c1` (centres unmarked) [Example 16, 2-((1-(3-(1-(5-carbamoylpyridin-2-yl)-1H-pyrazol-4-yl)-2,7-dimethyl-1-oxo-1,2-dihydroisoquinolin-5-yl)ethyl)amino)benzoic acid], for which the IC50 in assay [1] was 3.67 µM; in the assay with WT cell line SK-BR-3 [2], above 10 µM; in assay [3] it was 591 nM; in the assay on WT cell line SK-BR-3 [4] it was above 10 µM. For the same compound, in assay [3], the “Selectivity: SK-BR-3/T-47D” value was above 17.

Consider `Cc1cc(C(C)Nc2ccccc2C(=O)O)c2cc(-c3nc4ccccc4s3)n(C)c(=O)c2c1` (centres unmarked) [Example 17, 2-((1-(3-(benzo[d]thiazol-2-yl)-2,7-dimethyl-1-oxo-1,2-dihydroisoquinolin-5-yl)ethyl)amino)benzoic acid], for which the IC50 in assay [1] is 7.78 µM; with WT cell line SK-BR-3 [2], 0.795 µM; in assay [3], 746 nM; with WT cell line SK-BR-3 [4] it was above 10 µM. In addition, the “Selectivity: SK-BR-3/T-47D” value in assay [3] is recorded as above 13.

With `Cc1cc(C(C)Nc2ccccc2C(=O)O)c2cc(-c3ccc4nc(C)sc4c3)n(C)c(=O)c2c1` (centres unmarked) [Example 18, 2-((1-(2,7-dimethyl-3-(2-methylbenzo[d]thiazol-6-yl)-1-oxo-1,2-dihydroisoquinolin-5-yl)ethyl)amino)benzoic acid], the IC50 in assay [1] is 4.37 µM; in the assay on WT cell line SK-BR-3 [2] it was 2.32 µM; in assay [3], 222 nM; with WT cell line SK-BR-3 [4], above 10 µM. Also, the “Selectivity: SK-BR-3/T-47D” value in assay [3] is on record as above 45.

`Cc1cc(C(C)Nc2ccccc2C(=O)O)c2cc(-c3ccc4nn(C)cc4c3)n(C)c(=O)c2c1` (centres unmarked) [Example 19, 2-((1-(2,7-dimethyl-3-(2-methyl-2H-indazol-5-yl)-1-oxo-1,2-dihydroisoquinolin-5-yl)ethyl)amino)benzoic acid]: the IC50 in assay [1] was 6.56 µM; with WT cell line SK-BR-3 [2] it was 2.29 µM; in assay [3], 116 nM; with WT cell line SK-BR-3 [4], above 10 µM. Further, in assay [3], the “Selectivity: SK-BR-3/T-47D” value is above 86.

As to `CC(Nc1ccccc1C(=O)O)c1cccc2c(=O)n(C)c(-c3ccccc3)cc12` (centres unmarked) [Example 20, 2-((1-(2-methyl-1-oxo-3-phenyl-1,2-dihydroisoquinolin-5-yl)ethyl)amino)benzoic acid], the IC50 was 10.1 µM in assay [1], above 10 µM with WT cell line SK-BR-3 [2], 934 nM in assay [3] and above 10 µM in the assay with WT cell line SK-BR-3 [4]. Besides, the “Selectivity: SK-BR-3/T-47D” value in assay [3] is listed as above 10.7.

With `CC(Nc1ccccc1C(=O)O)c1cccc2c(=O)n(C)c(C#Cc3ccccc3)cc12` (centres unmarked) [Example 21, 2-((1-(2-methyl-1-oxo-3-(phenylethynyl)-1,2-dihydroisoquinolin-5-yl)ethyl)amino)benzoic acid], the concentration for half-maximal inhibition (IC50) in assay [1] was 1.34 µM; in the assay on WT cell line SK-BR-3 [2] it was 5.88 µM; in assay [3] it was 2540 nM; in the assay with WT cell line SK-BR-3 [4] it was above 10 µM. Further, the “Selectivity: SK-BR-3/T-47D” value in assay [3] is recorded as above 3.93.

Consider `Cc1cc(C(C)Nc2ccccc2C(=O)O)c2cc(-c3cccc4cn(C)nc34)n(C)c(=O)c2c1` (centres unmarked) [Example 22, 2-((1-(2,7-dimethyl-3-(2-methyl-2H-indazol-7-yl)-1-oxo-1,2-dihydroisoquinolin-5-yl)ethyl)amino)benzoic acid], for which the IC50 in assay [1] is 52.3 µM; with WT cell line SK-BR-3 [2], above 10 µM; in assay [3], above 10000 nM; with WT cell line SK-BR-3 [4], above 10 µM.

As for `Cc1cc(C(C)Nc2ccccc2C(=O)O)c2cc(-c3ccc(-c4cnn(C)c4)cc3)n(C)c(=O)c2c1` (centres unmarked) [Example 23, 2-((1-(2,7-dimethyl-3-(4-(1-methyl-1H-pyrazol-4-yl)phenyl)-1-oxo-1,2-dihydroisoquinolin-5-yl)ethyl)amino)benzoic acid], the IC50 in assay [1] is 2.03 µM; in the assay on WT cell line SK-BR-3 [2], 1.7 µM; in assay [3] it was 147 nM; in the assay with WT cell line SK-BR-3 [4], above 10 µM. The “Selectivity: SK-BR-3/T-47D” value in assay [3] is listed as above 68.

For the compound `Cc1cc(C(C)Nc2ccccc2C(=O)O)c2cc(NC(=O)c3ccccc3)n(C)c(=O)c2c1` (centres unmarked) [Example 24, 2-((1-(3-benzamido-2,7-dimethyl-1-oxo-1,2-dihydroisoquinolin-5-yl)ethyl)amino)benzoic acid], the IC50 was 39.2 µM in assay [1], above 10 µM in the assay with WT cell line SK-BR-3 [2], 9340 nM in assay [3] and above 10 µM in the assay with WT cell line SK-BR-3 [4]. Further, the “Selectivity: SK-BR-3/T-47D” value in assay [3] is above 1.07.

For `CC(Nc1ccccc1C(=O)O)c1cccn2c(=O)cc(-c3ccccc3)cc12` (centres unmarked) [Example 25, 2-((1-(4-oxo-2-phenyl-4H-quinolizin-9-yl)ethyl)amino)benzoic acid], the IC50 in assay [1] was 23.8 µM; with WT cell line SK-BR-3 [2] it was above 10 µM; in assay [3], above 10000 nM; with WT cell line SK-BR-3 [4] it was above 10 µM.

In the case of `Cc1cc([C@@H](C)Nc2ccccc2C(=O)O)c2cc(-c3ccccc3)n(C)c(=O)c2c1` [Example 30, (R)-2-((1-(2,7-dimethyl-1-oxo-3-phenyl-1,2-dihydroisoquinolin-5-yl)ethyl)amino)benzoic acid], the IC50 is 2.5 µM in assay [1], 2.5 µM in the assay with WT cell line SK-BR-3 [2], 177 nM in assay [3] and above 10 µM in the assay with WT cell line SK-BR-3 [4]. In assay [3], the “Selectivity: SK-BR-3/T-47D” value is on record as above 57.

On to `Cc1cc([C@H](C)Nc2ccccc2C(=O)O)c2cc(-c3ccccc3)n(C)c(=O)c2c1` [Example 31, (S)-2-((1-(2,7-dimethyl-1-oxo-3-phenyl-1,2-dihydroisoquinolin-5-yl)ethyl)amino)benzoic acid], for which the IC50 in assay [1] is above 100 µM; in the assay with WT cell line SK-BR-3 [2] it was above 10 µM; in assay [3], above 10000 nM; in the assay on WT cell line SK-BR-3 [4], above 10 µM.

In the case of `Cc1cc(C(C)Nc2ccccc2C(=O)O)c2cc(-c3ccccc3C#N)n(C)c(=O)c2c1` (centres unmarked) [Example 32, 2-((1-(3-(2-cyanophenyl)-2,7-dimethyl-1-oxo-1,2-dihydroisoquinolin-5-yl)ethyl)amino)benzoic acid], the half-inhibitory concentration (IC50) in assay [1] is 61.1 µM; with WT cell line SK-BR-3 [2] it was above 10 µM; in assay [3], 2460 nM; in the assay with WT cell line SK-BR-3 [4] it was above 10 µM. Besides, the “Selectivity: SK-BR-3/T-47D” value in assay [3] is reported as above 4.07.
